Key:
GDAP1ΔTM = molecular target: T1, GDAP1ΔTM (Mus musculus, UniProt O88741); test: differential scanning fluorimetry; format: binding; details: 2 mM or 0.5 mM ethacrynic acid; H-site
T1 sequence (O88741 1-322): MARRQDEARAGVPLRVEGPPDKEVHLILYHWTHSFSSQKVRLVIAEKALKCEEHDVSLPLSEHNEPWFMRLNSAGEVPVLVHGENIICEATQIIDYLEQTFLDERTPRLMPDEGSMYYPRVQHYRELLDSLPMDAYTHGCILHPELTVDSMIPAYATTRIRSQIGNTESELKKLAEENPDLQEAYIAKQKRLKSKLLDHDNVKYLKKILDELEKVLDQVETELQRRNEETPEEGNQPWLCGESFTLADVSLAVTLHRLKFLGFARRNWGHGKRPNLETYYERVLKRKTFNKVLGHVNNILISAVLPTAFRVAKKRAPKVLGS

GDAP1ΔNTΔHD1 = molecular target: T2, GDAP1ΔNTΔHD1 (Mus musculus, UniProt O88741); test: differential scanning fluorimetry; format: binding; details: 2 mM or 0.5 mM ethacrynic acid; H-site
T2 sequence (O88741 20-292): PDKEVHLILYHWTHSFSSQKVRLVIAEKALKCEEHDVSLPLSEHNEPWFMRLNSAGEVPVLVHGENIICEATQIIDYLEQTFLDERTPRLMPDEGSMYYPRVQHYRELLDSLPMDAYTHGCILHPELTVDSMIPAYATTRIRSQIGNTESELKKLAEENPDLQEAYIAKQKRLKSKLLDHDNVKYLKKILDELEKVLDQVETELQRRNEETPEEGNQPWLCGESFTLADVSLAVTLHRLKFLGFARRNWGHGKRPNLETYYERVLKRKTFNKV

GDAP1ΔNT = molecular target: T3, GDAP1ΔNT (Mus musculus, UniProt O88741); test: differential scanning fluorimetry; format: binding; details: 2 mM or 0.5 mM ethacrynic acid; H-site
T3 sequence (O88741 20-322): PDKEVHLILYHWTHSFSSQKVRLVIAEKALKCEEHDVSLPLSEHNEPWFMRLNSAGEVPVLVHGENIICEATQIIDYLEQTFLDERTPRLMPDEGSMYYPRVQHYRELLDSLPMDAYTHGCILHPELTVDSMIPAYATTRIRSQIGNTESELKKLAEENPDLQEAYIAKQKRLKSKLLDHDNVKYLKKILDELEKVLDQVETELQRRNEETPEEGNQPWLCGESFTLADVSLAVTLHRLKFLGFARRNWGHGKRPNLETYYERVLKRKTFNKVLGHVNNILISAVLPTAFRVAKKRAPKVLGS

GDAP1ΔHD1 = molecular target: T4, GDAP1ΔHD1 (Mus musculus, UniProt O88741); test: differential scanning fluorimetry; format: binding; details: 2 mM or 0.5 mM ethacrynic acid; H-site
T4 sequence (O88741 1-292): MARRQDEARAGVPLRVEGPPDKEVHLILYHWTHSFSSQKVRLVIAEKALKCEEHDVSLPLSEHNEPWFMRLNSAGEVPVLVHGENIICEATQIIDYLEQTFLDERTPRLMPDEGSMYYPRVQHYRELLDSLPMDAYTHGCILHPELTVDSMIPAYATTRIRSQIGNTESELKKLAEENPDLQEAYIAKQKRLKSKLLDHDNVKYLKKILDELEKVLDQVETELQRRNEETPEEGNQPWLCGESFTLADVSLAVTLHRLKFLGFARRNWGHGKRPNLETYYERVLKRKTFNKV

GST Mu = GST Mu (Schistosoma japonicum, UniProt P08515); test: differential scanning fluorimetry; format: binding; details: 1 mM ethacrynic acid, without or with 1 mM GSH; H-site
[1] = molecular target: GST Mu (Mu class glutathione S-transferase from Schistosoma japonicum) (Schistosoma japonicum); test: SEC

Sequence of GST Mu (P08515 whole entry): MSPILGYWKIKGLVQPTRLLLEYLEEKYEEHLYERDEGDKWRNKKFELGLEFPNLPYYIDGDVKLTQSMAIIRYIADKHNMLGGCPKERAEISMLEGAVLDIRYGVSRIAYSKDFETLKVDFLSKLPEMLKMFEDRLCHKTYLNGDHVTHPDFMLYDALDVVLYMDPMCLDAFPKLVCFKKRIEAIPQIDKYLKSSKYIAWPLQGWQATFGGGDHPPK
Sequence of GST Mu (Mu class glutathione S-transferase from Schistosoma japonicum) (enzyme) (P08515 2-218): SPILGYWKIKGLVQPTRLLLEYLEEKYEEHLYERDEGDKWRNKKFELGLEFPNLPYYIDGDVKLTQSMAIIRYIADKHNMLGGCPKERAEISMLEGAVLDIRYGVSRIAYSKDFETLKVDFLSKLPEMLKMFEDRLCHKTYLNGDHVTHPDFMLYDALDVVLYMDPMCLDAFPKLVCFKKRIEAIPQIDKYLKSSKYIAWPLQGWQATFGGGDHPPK

Compound | melting temperature shift (GDAP1ΔTM) | melting temperature shift (GDAP1ΔNTΔHD1) | melting temperature shift (GDAP1ΔNT) | melting temperature shift (GDAP1ΔHD1) | melting temperature shift (GST Mu) | stoichiometry N [1]
C=C(CC)C(=O)c1ccc(OCC(=O)O)c(Cl)c1Cl [ethacrynic acid] | GDAP1ΔTM, GDAP1ΔHD1, GDAP1ΔNT, GDAP1ΔNT ΔHD1 all retained ethacrynic acid binding | GDAP1ΔTM, GDAP1ΔHD1, GDAP1ΔNT, GDAP1ΔNT ΔHD1 all retained ethacrynic acid binding | GDAP1ΔTM, GDAP1ΔHD1, GDAP1ΔNT, GDAP1ΔNT ΔHD1 all retained ethacrynic acid binding | GDAP1ΔHD1 retains binding but the magnitude of the shift was reduced | GST Mu had an enhanced shift in the presence of both glutathione and EA | –
GST Mu (Mu class glutathione S-transferase from Schistosoma japonicum) (enzyme) | – | – | – | – | – | 2
